This is an account of results in US20230416653A1, “ANTIMICROBIAL CLEANING COMPOSITIONS CONTAINING POLYURETHANE SALTED WITH BIS-BIGUANIDE FREE BASE” (Lubrizol Advanced Materials, Inc., priority 2020, published 2023).

For this assay, the system named is Aspergillus brasiliensis. Kind of assay: Antimicrobial activity on ceramic tiles, visual evaluation of fungal growth. The class given is cell-based. The settings on record: 10 = full fungal growth coverage, 0 = complete absence of fungal growth; tiles rinsed with 0.1 wt. % SLS; incubated 7 days at 25° C. As to the method:
A 2 wt. % aqueous dispersion of Polymer 1 salted with 2 wt. % chlorhexidine free base was assayed for antimicrobial activity on ceramic tiles. Control formulations containing Polymer 2 (no acid groups) 2 wt. % aqueous dispersion combined with 2 wt. % chlorhexidine gluconate, chlorhexidine (1 wt. % active material in sterilized deionized water) and benzalkonium chloride (1 wt. % active material in sterilized deionized water) were prepared for comparison. The tiles (Homebase Gloss Mini-Metro wall tiles measuring 7.5 cm×15 cm×0.6 cm thick) were sprayed with the dispersion of the salted Polymer 1 and the control formulations. The treated tiles were dried overnight in a biological control cabinet (Nuaire model no. NU 4005) at 20° C. and 45% RH. The dried tiles were removed from the biological control cabinet and each tile was rinsed with 400 ml of a sterile solution of 0.1 wt. % sodium laurel sulfate in deionized water. A spore suspension of Aspergillus brasiliensis cultured on malt extract agar was prepared in sterilized deionized water (concentration: 1×10^8 cfu/ml) and applied to each tile with a handheld spray bottle (nozzle set on spray position). The treated tiles were placed in the biological cabinet at 20° C. and 45% RH and dried for 30 mins. […] After incubating for 7 days the tiles were removed and visually evaluated for fugal growth.

For “benzalkonium chloride [Control (benzalkonium chloride)]”, the “Fungal Coverage Rating (average of 10 treated tiles)” value was found to be 6.

For `N=C(NCCCCCCNC(=N)NC(=N)Nc1ccc(Cl)cc1)NC(=N)Nc1ccc(Cl)cc1` [Control (chlorhexidine), chlorhexidine], the “Fungal Coverage Rating (average of 10 treated tiles)” value worked out at 5.
